Measurements reported in patent publication US9957278B2, “Furopyridine compounds for the treatment of hepatitis C” (BRISTOL-MYERS SQUIBB COMPANY, priority 2014, dated 2018).
Read-outs that look alike come from different tables or passages of the source.

How the values were obtained:
[1] = tested on: genotype 1b (Con-1) HCV replicon; test: HCV Replicon Luciferase Assay (genotype 1b); assay type: cell-based; conditions: Hepatitis C virus, 72 h, genotype 1b replicon in Huh-7 cells, Renilla luciferase, 3 days incubation
Protocol: The cell lines used to evaluate compounds consist of a human hepatocyte derived cell line (Huh-7) that constitutively expresses a genotype 1b (Con-1) HCV replicon or a genotype 1b (Con-1) HCV replicon with an asparagine replacing the cysteine at amino acid 316, or a genotype 2a (JFH-1) replicon, containing a Renilla luciferase reporter gene. These cells were maintained in Dulbecco's modified Eagle medium (DMEM) containing 10% FBS, 100 U/mL penicillin/streptomycin and 1.0 mg/mL G418.
To evaluate compound efficacy, titrated compounds were transferred to sterile 384-well tissue culture treated plates, and the plates were seeded with HCV replicon cells (50 μL at a density of 2.4×10^3 cells/well) in DMEM containing 4% FBS (final DMSO concentration at 0.5%). After 3 days incubation at 37° C., cells were analyzed for Renilla Luciferase activity using the EnduRen substrate (Promega cat #E6485) according to the manufacturer's directions. Briefly, the EnduRen substrate was diluted in DMEM and then added to the plates to a final concentration of 7.5 μM. The plates were incubated for at least 1 h at 37° C. then read on a Viewlux Imager (PerkinElmer) using a luminescence program. The 50% effective concentration (EC50) was calculated using the four-parameter logistic formula noted above.
Compound EC50 data is expressed as A: <100 nM; B=100-1000 nM; C>1000 nM).

HCV = conditions: cited from earlier work

| SMILES | EC50 ([1]; read-out: EC50 1b (class)) [µM] | other results |
| --- | --- | --- |
| CNC(=O)c1c(-c2ccc(F)cc2)oc2nc(NCC(F)(F)F)c(-c3cccc(C(=O)NC(C)(C)C(=O)OC)c3)cc12 [Compound 30009] | < 0.1 | – |
| CNC(=O)c1c(-c2ccc(F)cc2)oc2nc(NCC(F)(F)F)c(-c3cccc(C(=O)NC(C)(C)CO)c3)cc12 [Compound 30010] | < 0.1 | – |
| CNC(=O)c1c(-c2ccc(F)cc2)oc2nc(NCC(F)(F)F)c(-c3cccc(C(=O)NCC(C)(C)C)c3)cc12 [Compound 30011] | < 0.1 | – |
| CNC(=O)c1c(-c2ccc(F)cc2)oc2nc(NCC(F)(F)F)c(-c3cccc(C(=O)N[C@@H](CO)c4ccccc4)c3)cc12 [Compound 30012] | < 0.1 | EC50 ([1]; read-out: EC50 (uM) 1b): 0.0239 µM |
| CNC(=O)c1c(-c2ccc(F)cc2)oc2nc(NCC(F)(F)F)c(-c3cccc(C(=O)NC(C)(C)C(=O)NC)c3)cc12 [Compound 30013] | < 0.1 | – |
| CNC(=O)c1c(-c2ccc(F)cc2)oc2nc(NCC(F)(F)F)c(-c3cccc(C(=O)NCC(C)(C)CO)c3)cc12 [Compound 30014] | < 0.1 | – |
| CNC(=O)c1c(-c2ccc(F)cc2)oc2nc(NCC(F)(F)F)c(-c3cccc(C(=O)NC(C)(C)c4ccccc4)c3)cc12 [Compound 30015] | < 0.1 | EC50 ([1]; read-out: EC50 (uM) 1b): 0.0067 µM |
| CNC(=O)c1c(-c2ccc(F)cc2)oc2nc(NCC(F)(F)F)c(-c3cccc(C(=O)N[C@H](CO)c4ccccc4)c3)cc12 [Compound 30016] | < 0.1 | – |
| CNC(=O)c1c(-c2ccc(F)cc2)oc2nc(NCC(F)(F)F)c(-c3ccc(OC)c(C(=O)NCC(F)(F)C(F)(F)C(F)(F)F)c3)cc12 [Compound 31001] | < 0.1 | EC50 ([1]; read-out: EC50 (uM) 1b): 0.014 µM |
| CNC(=O)c1c(-c2ccc(F)cc2)oc2nc(NCC(F)(F)F)c(-c3ccc(OC)c(C(=O)NC(CF)(CF)CF)c3)cc12 [Compound 31002] | < 0.1 | – |
| CNC(=O)c1c(-c2ccc(F)cc2)oc2nc(NCC(F)(F)C(F)(F)F)c(-c3cccc(C(=O)NCC(C)(C)C)c3)cc12 [Compound 40001] | < 0.1 | EC50 ([1]; read-out: EC50 (uM) 1b): 0.0982 µM |
| CNC(=O)c1c(-c2ccc(F)cc2)oc2nc(NCC(F)(F)C(F)(F)F)c(-c3cccc(C(=O)NC(C)(C)C)c3)cc12 [Compound 40002] | < 0.1 | – |
| [2H]C([2H])([2H])C(NC(=O)c1cccc(-c2cc3c(C(=O)NC)c(-c4ccc(F)cc4)oc3nc2NCC(F)(F)C(F)(F)F)c1)(C([2H])([2H])[2H])C([2H])([2H])[2H] [Compound 40003] | 0.1 to 1 | – |
| CNC(=O)c1c(-c2ccc(F)cc2)oc2nc(NCC(F)(F)C(F)(F)F)c(-c3cccc(C(=O)NC(CF)(CF)CF)c3)cc12 [Compound 40004] | < 0.1 | – |
| C#CC(C)(C)NC(=O)c1cccc(-c2cc3c(C(=O)NC)c(-c4ccc(F)cc4)oc3nc2NCC(F)(F)C(F)(F)F)c1 [Compound 40005] | 0.1 to 1 | – |
| CNC(=O)c1c(-c2ccc(F)cc2)oc2nc(NCC(F)(F)C(F)(F)F)c(-c3ccc(OC)c(C(=O)NC(C)(C)C)c3)cc12 [Compound 41001] | < 0.1 | – |
| CNC(=O)c1c(-c2ccc(F)cc2)oc2nc(NCC(F)(F)C(F)(F)F)c(-c3ccc(OC)c(C(=O)NCC(C)(C)C)c3)cc12 [Compound 41002] | < 0.1 | – |
| CNC(=O)c1c(-c2ccc(F)cc2)oc2nc(NCC(F)(F)C(F)(F)F)c(-c3ccc(OC)c(C(=O)NC(CF)(CF)CF)c3)cc12 [Compound 41003] | < 0.1 | EC50 ([1]; read-out: EC50 (uM) 1b): 0.0519 µM |
| C#CC(C)(C)NC(=O)c1cc(-c2cc3c(C(=O)NC)c(-c4ccc(F)cc4)oc3nc2NCC(F)(F)C(F)(F)F)ccc1OC [Compound 41004] | < 0.1 | EC50 ([1]; read-out: EC50 (uM) 1b): 0.0173 µM |
| [2H]C([2H])([2H])C(NC(=O)c1cc(-c2cc3c(C(=O)NC)c(-c4ccc(F)cc4)oc3nc2NCC(F)(F)C(F)(F)F)ccc1OC)(C([2H])([2H])[2H])C([2H])([2H])[2H] [Compound 41005] | < 0.1 | – |
| CNC(=O)c1c(-c2ccc(F)cc2)oc2nc(NCCO)c(-c3cccc(C(=O)NC(C)(C)C(F)(F)F)c3)cc12 [Compound 42001] | < 0.1 | – |
| CNC(=O)c1c(-c2ccc(F)cc2)oc2nc(NCCO)c(-c3cccc(C(=O)NC(CF)(CF)CF)c3)cc12 [Compound 42002] | < 0.1 | – |
| [2H]C([2H])([2H])C(NC(=O)c1cccc(-c2cc3c(C(=O)NC)c(-c4ccc(F)cc4)oc3nc2NCCO)c1)(C([2H])([2H])[2H])C([2H])([2H])[2H] [Compound 42003] | < 0.1 | EC50 ([1]; read-out: EC50 (uM) 1b): 0.0144 µM |
| CNC(=O)c1c(-c2ccc(F)cc2)oc2cc(N(CCO)S(C)(=O)=O)c(C3CC3)cc12 [HCV-796] | – | hepatic toxicity (HCV; extended dosing of the combination regimens): hepatic toxicity observed; HCV RNA levels in patients (HCV; patients, single agent transient, more robust with interferon and ribavirin): reduce HCV RNA levels |
